According to ChEMBL document CHEMBL1201862, “PubChem BioAssay data set” (2004):
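Assay format: 96-well plates, 48-hour exposure. GI50 is the concentration that inhibits growth by half.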 Activity calls are given as the source filed them. No stated cut-off is given here; in the data, active = GI50 up to about 1.1 µM and inactive = higher.

Legend:
Experiment in all cases: NCI tumour cell line growth inhibition, 48 h
HOP-62 = test system: HOP-62
OVCAR-4 = test system: OVCAR-4
Malme-3M = test system: Malme-3M
U-251 = test system: U-251
NCI-H460 = test system: NCI-H460
SN12C = test system: SN12C
SR = test system: SR
SK-MEL-5 = test system: SK-MEL-5
SK-OV-3 = test system: SK-OV-3
LOX IMVI = test system: LOX IMVI
CAKI-1 = test system: CAKI-1
SF-268 = test system: SF-268
MDA-MB-231 = test system: MDA-MB-231
BT-549 = test system: BT-549
DU-145 = test system: DU-145
M14 = test system: M14
COLO 205 = test system: COLO 205
UACC-62 = test system: UACC-62
KM12 = test system: KM12
A549 = test system: A549

Measured: GI50

O=C1C=CC(=O)C1(Br)Br
inactive: HOP-62 17.6 µM | OVCAR-4 17.6 µM | Malme-3M 20 µM | U-251 12.3 µM | NCI-H460 19.3 µM | SN12C 7.96 µM | SR 3.42 µM | SK-MEL-5 16.9 µM | SK-OV-3 21 µM | LOX IMVI 12.1 µM | CAKI-1 5.11 µM | SF-268 18.5 µM | MDA-MB-231 8.22 µM | BT-549 11.3 µM | DU-145 16 µM | M14 18.1 µM | COLO 205 10 µM | UACC-62 10.8 µM | KM12 13.1 µM | A549 13.8 µM

O=P(O)(O)CN1CCNCCN(CP(=O)(O)O)CCNCC1
inactive: HOP-62 > 100 µM | OVCAR-4 > 71.3 µM | Malme-3M 20.9 µM | U-251 > 24.4 µM | NCI-H460 3.24 µM | SN12C > 100 µM | SR 1.79 µM | SK-MEL-5 4.76 µM | SK-OV-3 8.87 µM | LOX IMVI 15.7 µM | CAKI-1 > 47.8 µM | SF-268 > 100 µM | MDA-MB-231 > 100 µM | BT-549 > 100 µM | DU-145 > 100 µM | M14 26.1 µM | COLO 205 5.13 µM | UACC-62 7.74 µM | KM12 6.84 µM | A549 8.22 µM
